# From patent US12274830B2, “Nitric oxide inhalation therapy for infants with bronchiolitis” (BEYOND AIR LTD, priority 2015, dated 2025)
# “Also recorded” adds a separate entry of the source.
# Tests used:
# [1] = tested on: infants with acute bronchiolitis; experiment: Safety and tolerability of intermittent inhalations of 160 ppm NO in hospitalized infants with acute bronchiolitis (randomized double blind study); type: in vivo, human
# Protocol: The study was conducted at the Soroka University Medical Center in southern Israel, and was approved by the Institutional and National Human Ethics Committee. A detailed study overview is attached as an online supplement. This study is registered with clinical trial number NCT01768884.
# The study was a randomized, prospective, single center, double blind study of 2-11 month old hospitalized infants with acute bronchiolitis (FIG. 1).
# Subjects were screened within 4 hours of admission and randomized (1:1) to receive intermittent inhalations of 160 ppm NO along with standard treatment (NO group) or intermittent inhalations of 02/air mixture and standard treatment (control group), for a maximum of 25 inhalations.
# Standard Supportive Treatment: This treatment included humidified oxygen, nasal suction when needed and hydration (oral, intra-venous or nasogastric tube fluids). The use of other concomitant medications was allowed, according to the ward's common practice.
# Nitric Oxide Treatment: Subjects spontaneously inspired 160 ppm NO in fixed flow mode via a facemask. Nitric Oxide (Maxima, Israel) of 800 ppm (0.08%) NO balanced with 99.999% purity Nitrogen (N2), was titrated into the O2/air inspiratory delivery line. Inhaled NO, NO2 and O2 concentrations in the patient breathing circuit were continuously monitored using dedicated gas analyzers. (AeroNox, International medical, USA).
# Primary Outcome: Safety measures, included % MetHb and NO2 production associated with NO treatment, bleeding episodes and any other adverse event (AE). Study threshold for NO2 and MetHb was set at 5 ppm and 5%, respectively.
# The primary outcome was safety and tolerability of intermittent inhalations of 160 ppm NO, given to infants 2 to 11 months with acute bronchiolitis. Safety measures included % MetHb associated with NO treatment (safety threshold was determined as >5% for MetHb and >5 ppm for NO2), as well as any other AEs. Tolerability measures included the proportions of subjects who prematurely discontinued the study for any reason, and the proportion of subjects who prematurely discontinued the treatment due to severe SAEs.
# The research staff was divided into “blinded” and “unblinded” groups. The unblinded staff administered the inhalations to the infants and monitored % MetHb, % SpO2 (co-oximeter, RAD57/RAD 87, Masimo Corporation, USA), fractional inhaled O2 (FiO2), NO, NO2 levels. The blinded group included the primary investigator and all other staff directly involved with patient care. Safety threshold for NO2 and MetHb was set at 5 ppm and 5%, respectively. It should be emphasized that both treatments, NO/O2 (NO treatment) as well as O2/air mixture (control) were given via the same device, therefore, parents were also blinded to the treatment arm.
# Each patient was given 5 inhalations a day of NO (treatment group) or oxygen (control group), along with the standard supportive treatment, for a maximum of 25 inhalations (based on phase I safety data). Each participant was examined and evaluated using the severity symptom score by a blinded pediatricians every […] (9 am and 3 pm). When the room-air SpO2 reached 92%, and the score was ≤5, and the patient was assessed as “ready for discharge”, the treatment was discontinued.
# The data were managed and analyzed by independent statisticians group using the SAS version 9.1 (SAS Institute, Cary, North Carolina). […]
# [2] = tested on: S. aureus (ATCC 25923); conditions: 200 ppm gNO; cited from earlier work
# [3] = tested on: P. aeruginosa (ATCC 27853); conditions: 200 ppm gNO; cited from earlier work
# [4] = tested on: Serracia sp.; conditions: 200 ppm gNO; cited from earlier work
# [5] = tested on: S. aureus (Clinical); conditions: 200 ppm gNO; cited from earlier work
# [6] = tested on: S. maltophilia; conditions: 200 ppm gNO; cited from earlier work
# [7] = tested on: Enterobacter sp.; conditions: 200 ppm gNO; cited from earlier work
# [8] = tested on: Acinetobacter sp.; conditions: 200 ppm gNO; cited from earlier work
# [9] = tested on: E. coli; conditions: 200 ppm gNO; cited from earlier work
# [10] = tested on: Group B Streptococci; conditions: 200 ppm gNO; cited from earlier work
# [11] = tested on: Mycobacterium smegmatis; conditions: 200 ppm gNO; cited from earlier work
# [12] = tested on: influenza virions or infected cell (MDCK); conditions: intermittent (30 minutes every 4 hours) 160 ppm exogenous gaseous NO; MDCK cell model; cited from earlier work
# [13] = tested on: healthy individuals; conditions: 160 ppm NO for 30 minutes, 5 times daily, 5 consecutive days; cited from earlier work
# [14] = NO Group (N = 21), Methemoglobin >5%
# [15] = NO Group (N = 21), NO2 concentration >5 ppm
# [16] = NO Group (N = 21), Oxyhemoglobin <89%
smiles,measurement,setting,value
"[N]=O [NO, nitric oxide]",Bleeding episodes or deaths during the study,[1]; 160 ppm NO intermittent inhalation,no bleeding episodes or deaths; also recorded: no bleeding episodes
same,NO2 elevations and clinical evidence of toxicity,[1]; 30 minutes of inhaled 160 ppm NO five time a day,neither associated with significant elevations in NO2 nor clinical evidence of toxicity; also recorded: no events of significant NO2 elevations
same,Safety and tolerability versus control (standard supportive treatment),"[1]; ITT, PP",no statistically significant safety and tolerability differences; also recorded: comparable to those in the standard-supportive treatment
same,"Any AE, events (E)",[1]; NO Group (N = 21),22 E
same,"Any serious AE, events (E)",[1]; NO Group (N = 21),4 E
same,"Any serious AE, subjects n (%)",[1]; NO Group (N = 21),4 (19.0%) n (%)
same,"Any serious treatment-related AE, events (E)",[1]; NO Group (N = 21),0 E
same,"Any severe AE, events (E)",[1]; NO Group (N = 21),1 E
same,"Any severe AE, subjects n (%)",[1]; NO Group (N = 21),1 (4.8%) n (%)
same,"Any treatment-related AE, events",[1]; NO Group (N = 21),6 E
same,"Death, events (E)",[1]; NO Group (N = 21),0 E
same,"Death, subjects n (%)",[1]; NO Group (N = 21),0 (0.0%) n (%)
same,"Treatment withdrawal due to AE, events (E)",[1]; NO Group (N = 21),1 E
same,"Treatment withdrawal due to AE, subjects n (%)",[1]; NO Group (N = 21),1 (4.8%) n (%)
same,"Treatment-related AE: Blood and Lymphatic System Disorders, Events",[1]; NO Group (N = 21),5 Events
same,"Treatment-related AE: Investigations, Events",[1]; NO Group (N = 21),1 Events
same,"Treatment-related AE: Blood and Lymphatic System Disorders, subjects n (%)","[1]; NO Group (N = 21), MedDRA SOC",4 (19.0%) n (%)
same,"Treatment-related AE: Investigations, subjects n (%)","[1]; NO Group (N = 21), MedDRA SOC",1 (4.8%) n (%)
same,"Treatment-related AE: Methaemoglobinaemia, Events",[1]; [14],5 Events
same,"Treatment-related AE: Methaemoglobinaemia, subjects n (%)",[1]; [14],4 (19.0%) n (%)
same,"Treatment-related AE: NO2 increase, Events",[1]; [15],1 Events
same,"Treatment-related AE: NO2 increase, subjects n (%)",[1]; [15],1 (4.8%) n (%)
same,"Treatment-related AE: Oxyemoglobin decreased, Events",[1]; [16],1 Events
same,"Treatment-related AE: Oxyemoglobin decreased, subjects n (%)",[1]; [16],1 (4.8%) n (%)
same,"Any AE, subjects n (%)","[1]; NO Group (N = 21), intermittent 160 ppm NO + standard treatment",10 (47.6%) n (%)
same,"Any treatment-related AE, subjects n (%)","[1]; NO Group (N = 21), possibly or probably related to study treatment",5 (23.8%) n (%)
same,Subjects in whom MetHb values >5% were observed more than once,[1]; NO group,3 subjects
same,"Subjects with MetHb measurement >5% during the study treatment period, n (%)",[1]; NO group,6 (28.5%) n (%)
same,MetHb peak value at end of inhalation (mean),"[1]; NO group, each NO inhalation",3.3±0.9%
same,Maximum MetHb value,"[1]; NO group, in two subjects",5.6%
same,"Subjects who discontinued the study/study treatment, n (%)","[1]; NO group, tolerability",2 (9.5%) n (%)
same,SpMet level of infants undergoing the method,[1]; general statement referring to the Examples,≤ 1%
same,Cumulative effect / accumulation of MetHb over the treatment period,[1]; pre- vs end of inhalation MetHb levels,no cumulative effect; also recorded: no accumulation of MetHb
same,+2.5 Log10,[2],3.3 hours
same,LD100,[2],4 h
same,Latent Period,[2],3 h
same,+2.5 Log10,[3],2.1 hours
same,LD100,[3],3 h
same,Latent Period,[3],1 h
same,+2.5 Log10,[4],4.9 hours
same,LD100,[4],6 h
same,Latent Period,[4],4 h
same,+2.5 Log10,[5],3.7 hours
same,LD100,[5],4 h
same,Latent Period,[5],3 h
same,+2.5 Log10,[6],2.8 hours
same,LD100,[6],4 h
same,Latent Period,[6],2 h
same,+2.5 Log10,[7],5.3 hours
same,LD100,[7],6 h
same,Latent Period,[7],4 h
same,+2.5 Log10,[8],5 hours
same,LD100,[8],6 h
same,Latent Period,[8],4 h
same,+2.5 Log10,[9],4.2 hours
same,LD100,[9],5 h
same,Latent Period,[9],3 h
same,+2.5 Log10,[10],1.5 hours
same,LD100,[10],2 h
same,Latent Period,[10],1 h
same,+2.5 Log10,[11],9.2 hours
same,LD100,[11],10 h
same,Latent Period,[11],7 h
same,Effect on influenza viral replication and infectivity,[12],"reduced not just viral replication, but also its infectivity"
same,Safety and tolerability in healthy individuals,[13],safe and well tolerated
